Measurements reported in ChEMBL document CHEMBL5344477, “Discovery of benzoheterocyclic-substituted amide derivatives as apoptosis signal-regulating kinase 1 (ASK1) inhibitors” (RSC Med Chem, 2024).

Assays:
[1] = Volume of distribution at steady state in Sprague-Dawley rat at 1 mg/kg, iv measured upto 24 hrs by LC-MS/MS analysis; type: ADME, organism-based; details: in vivo, read-out: Vdss
[2] = Metabolic stability in human liver microsomes assessed as half life at 1 uM measured upto 90 mins by LC-MS/MS analysis; type: ADME, Microsome
[3] = Apparent […] clearance in Sprague-Dawley rat at 1 mg/kg, iv measured upto 24 hrs by LC-MS/MS analysis; type: ADME, organism-based; details: in vivo
[4] = AUClast in Sprague-Dawley rat at 5 mg/kg, po measured upto 24 hrs by LC-MS/MS analysis; type: ADME, organism-based; design: dose 5 mg/kg, time < 24 hrs, route po; details: in vivo
[5] = Cmax in Sprague-Dawley rat at 1 mg/kg, iv measured upto 24 hrs by LC-MS/MS analysis; type: ADME, organism-based; design: dose 1 mg/kg, time < 24 hrs, route iv; details: in vivo
[6] = AUClast in Sprague-Dawley rat at 1 mg/kg, iv measured upto 24 hrs by LC-MS/MS analysis; type: ADME, organism-based; design: dose 1 mg/kg, time < 24 hrs, route iv; details: in vivo
[7] = Metabolic stability in human liver microsomes assessed as clearance at 1 uM measured upto 90 mins by LC-MS/MS analysis; type: ADME, Microsome; details: read-out: CLH
[8] = Metabolic stability in rat liver microsomes assessed as clearance at 1 uM measured upto 90 mins by LC-MS/MS analysis; type: ADME, Microsome; details: read-out: CLH
[9] = Cmax in Sprague-Dawley rat at 5 mg/kg, po measured upto 24 hrs by LC-MS/MS analysis; type: ADME, organism-based; design: dose 5 mg/kg, time < 24 hrs, route po; details: in vivo
[10] = Oral bioavailability in Sprague-Dawley rat at 5 mg/kg measured upto 24 hrs by LC-MS/MS analysis; type: ADME, organism-based; details: in vivo
[11] = Half life in Sprague-Dawley rat at 1 mg/kg, iv measured upto 24 hrs by LC-MS/MS analysis; type: ADME, organism-based; details: in vivo
[12] = Half life in Sprague-Dawley rat at 5 mg/kg, po measured upto 24 hrs by LC-MS/MS analysis; type: ADME, organism-based; details: in vivo
[13] = Metabolic stability in rat liver microsomes assessed as half life at 1 uM measured upto 90 mins by LC-MS/MS analysis; type: ADME, Microsome

| SMILES | Vd [1] [L/kg] | half-life at 1 µM [2] [h] | CL/F [3] [mL/min/kg] | AUC(0-t) at 24 h [4] [ng·h/mL] | Cmax [5] [ng/mL] | AUC(0-t) at 24 h [6] [ng·h/mL] | CLint scaled at 1 µM [7] [mL/min/kg] | CLint scaled at 1 µM [8] [mL/min/kg] | Cmax [9] [ng/mL] | bioavailability [10] [%] | half-life [11] [h] | half-life [12] [h] | half-life at 1 µM [13] [h] |
| --- | --- | --- | --- | --- | --- | --- | --- | --- | --- | --- | --- | --- | --- |
| O=C(Nc1cccc(-c2nncn2C2CCCC2)n1)c1cc2c(cc1F)OCc1cncn1-2 |  | 0.35 |  |  |  |  | 82.7 | 230 |  |  |  |  | 0.18 |
| CC(C)n1cnnc1-c1cccc(NC(=O)c2cc3c(cc2F)CCC(=O)N3)n1 | 0.56 | 4.98 | 13.2 | 534 | 2080 | 1260 | 5.8 | 13.3 | 334 | 8.8 | 0.71 | 1.46 | 3.12 |
| CC(C)n1cnnc1-c1cccc(NC(=O)c2cc3c(cc2F)OCC(=O)N3)n1 | 0.85 | 9.74 | 10.2 | 4290 | 1040 | 1630 | 3 | 13.7 | 1260 | 56.4 | 1.11 | 1.86 | 3.02 |
| CC(C)N1C(=O)COc2cc(F)c(C(=O)Nc3cccc(-c4nncn4C(C)C)n3)cc21 |  | 0.917 |  |  |  |  | 31.6 | 140 |  |  |  |  | 0.297 |
| CC(C)n1cnnc1-c1cccc(NC(=O)c2cc3c(cc2F)OCc2cncn2-3)c1 | 2.61 | 0.458 | 50.3 | 939 | 235 | 329 | 63.3 | 378 | 445 | 57.4 | 0.63 | 1.13 | 0.11 |
| CC(C)n1cnnc1-c1cccc(NC(=O)c2cc3c(cc2F)CCCC(=O)N3)n1 | 1.07 | 8.8 | 12.8 | 4830 | 1070 | 1270 | 3.3 | 6.6 | 1270 | 77.7 | 1.24 | 1.63 | 6.24 |
| CC(C)n1cnnc1-c1cccc(NC(=O)c2cc3c(cc2F)CCCC(=O)N3C)c1 | 1.44 | 3.72 | 36.8 | 712 | 758 | 449 | 7.8 | 10.4 | 341 | 33.2 | 0.8 | 1.44 | 3.97 |
| O=C(Nc1cccc(-c2nncn2CC2CC2)n1)c1cc2c(cc1F)OCc1cncn1-2 | 1.13 | 1.2 | 23.7 | 7820 | 804 | 706 | 24.1 | 151 | 3520 |  | 0.75 | 1.04 | 0.275 |
| CC(C)n1cnnc1-c1cccc(NC(=O)c2cc3c(cc2F)OCC(=O)N3C)n1 | 1.49 | 5.67 | 7.5 | 10900 | 779 | 2220 | 5.1 | 16.8 | 1830 | 97.9 | 1.62 | 2.11 | 2.46 |
| CC(C)n1cnnc1-c1cccc(NC(=O)c2cc3c(cc2F)CCC(=O)N3)c1 | 3.41 | 17.3 | 74.5 | 157 | 274 | 222 | 1.7 | 7.5 | 58 | 15.1 | 0.68 | 1.79 | 5.49 |
| O=C(Nc1cccc(-c2nncn2C2CC2)n1)c1cc2c(cc1F)OCc1cncn1-2 |  | 1.34 |  |  |  |  | 21.7 | 181 |  |  |  |  | 0.228 |
| CC(C)n1cnnc1-c1cccc(NC(=O)c2cc3c(cc2F)CCCC(=O)N3)c1 | 2.19 | 8.31 | 52 | 252 | 420 | 320 | 3.5 | 6.2 | 109 | 16 | 0.72 | 1.84 | 6.69 |
| O=C1COc2cc(F)c(C(=O)Nc3cccc(-c4nncn4-c4ccccc4)n3)cc2N1 | 0.68 | 2.55 | 3.33 | 12100 | 1580 | 5070 | 11.4 | 4.7 | 3000 | 47.9 | 3.15 | 2.95 | 8.74 |
| O=C(Nc1cccc(-c2nncn2CC2CC2)c1)c1cc2c(cc1F)OCc1cncn1-2 | 1.08 | 1.12 | 38.5 | 865 | 812 | 431 | 25.8 | 248 | 635 | 40.2 | 0.55 | 0.97 | 0.167 |
| CC(C)n1cnnc1-c1cccc(NC(=O)c2cc3c(cc2F)OCc2cncn2-3)n1 | 1.22 | 1.78 | 31.3 | 2280 | 793 | 529 | 16.3 | 222 | 794 | 86.9 | 0.67 | 1.1 | 0.187 |
| CC(CO)n1cnnc1-c1cccc(NC(=O)c2cc3c(cc2F)CCCC(=O)N3)n1 (stereo not given) | 3.01 | 16.3 | 154 |  | 262 | 108 | 1.8 | 9.5 |  |  | 0.28 |  | 4.37 |
| CC(C)n1cnnc1-c1cccc(NC(=O)c2cc3c(cc2F)CCCC(=O)N3C)n1 | 1.56 |  | 43.7 | 2210 | 597 | 381 |  |  | 582 | 116 | 0.73 | 2.37 |  |

Continued, values first:

| Vd [1] [L/kg] | half-life at 1 µM [2] [h] | CL/F [3] [mL/min/kg] | AUC(0-t) at 24 h [4] [ng·h/mL] | Cmax [5] [ng/mL] | AUC(0-t) at 24 h [6] [ng·h/mL] | CLint scaled at 1 µM [7] [mL/min/kg] | CLint scaled at 1 µM [8] [mL/min/kg] | Cmax [9] [ng/mL] | bioavailability [10] [%] | half-life [11] [h] | half-life [12] [h] | half-life at 1 µM [13] [h] | SMILES |
| --- | --- | --- | --- | --- | --- | --- | --- | --- | --- | --- | --- | --- | --- |
| 1.14 | 2.6 | 12.2 | 7530 | 799 | 1340 | 11.1 | 13.2 | 1850 | 121 | 1.22 | 1.97 | 3.15 | CN1C(=O)CCCc2cc(F)c(C(=O)Nc3cccc(-c4nncn4C4CC4)n3)cc21 |
| 1.82 | 2.71 | 20.8 | 3180 | 418 | 789 | 10.7 | 25.3 | 550 | 89.1 | 1.12 | 5.02 | 1.64 | CC(C)n1cnnc1-c1cccc(NC(=O)c2cc3c(cc2F)C(C)(C)CC(=O)N3C)n1 |
| 0.97 | 0.307 | 18.2 | 3390 | 1080 | 919 | 94.3 | 70.8 | 1490 | 77.7 | 0.86 | 2.36 | 0.585 | O=C1COc2cc(F)c(C(=O)Nc3cccc(-c4nncn4C4CCCC4)n3)cc2N1 |
| 1.32 | 3.95 | 24.8 | 2660 | 594 | 668 | 7.3 | 34.3 | 964 | 80.7 | 0.86 | 1.13 | 1.2 | CC(C)n1cnnc1-c1cccc(NC(=O)c2cc3c(cc2F)CCC(=O)N3C)n1 |
| 0.27 |  |  | 38300 | 3030 |  |  |  | 6030 | 129 |  |  |  | Cc1cc(F)c(C(=O)Nc2cccc(-c3nncn3C(C)C)n2)cc1-n1cnc(C2CC2)c1 [SELONSERTIB] |
| 1.07 |  | 13.8 | 4560 | 945 | 1200 |  |  | 1420 | 75.9 | 0.99 | 2.03 |  | CC(C)n1cnnc1-c1cccc(NC(=O)c2cc3c(cc2F)C(C)(C)CC(=O)N3)n1 |
|  | 1.1 |  |  |  |  | 26.4 | 160 |  |  |  |  | 0.258 | O=C(Nc1cccc(-c2nncn2-c2ccccc2)n1)c1cc2c(cc1F)OCc1cncn1-2 |
